# From ChEMBL document CHEMBL5512674, “Novel Acyl Thiourea-Based Hydrophobic Tagging Degraders Exert Potent Anti-Influenza Activity through Two Distinct Endonuclease Polymerase Acidic-Targeted Degradation Pathways” (J Med Chem, 2024)
# Calls of active or inactive are those of the source. The calls are words filed in the database; no cut-off is given here.
# Columns and labels:
# [1] = target: T1, von Hippel-Lindau disease tumor suppressor/Polymerase acidic protein (Influenza A virus (A/Puerto Rico/8/1934(H1N1))) (UniProt P03433+P40337); test: PROTAC activity at Influenza A virus A/WSN/33(H1N1) flag tagged Polymerase acidic protein/VHL (unknown origin) expressed in HEK293T cells assessed as degradation of PA expression at 5 uM incubated for 24 hrs by Western blotting analysis; assay type: cell-based
# [2] = system: Influenza A virus; test: Anti-influenza activity against Influenza A virus A/WSN/33(H1N1) infected in MDCK cells assessed as downregulation of nucleoprotein expression incubated for 24 hrs by Western blotting analysis; assay type: functional, organism-based
# [3] = target: T1, von Hippel-Lindau disease tumor suppressor/Polymerase acidic protein (Influenza A virus (A/Puerto Rico/8/1934(H1N1))); test: PROTAC activity at Influenza A virus A/WSN/33(H1N1) flag tagged Polymerase acidic protein/VHL (unknown origin) expressed in HEK293T cells assessed as degradation of PA expression at 10 uM incubated for 24 to 48 hrs by Western blotting analysis; assay type: cell-based; conditions: time 24-48 hrs
# [4] = Half life in mouse liver microsomes preincubated for 5 mins followed by NADPH addition and measured for 45 mins by LC-MS analysis; assay type: ADME, Microsome; conditions: time 50 min
# [5] = Stability in human plasma assessed as compound remaining measured after 60 mins by LC-MS/MS analysis; assay type: ADME, cell-free; conditions: read-out: Stability
# [6] = Intrinsic clearance in human liver microsomes preincubated for 5 mins followed by NADPH addition and measured for 45 mins by LC-MS analysis; assay type: ADME, Microsome; conditions: time 50 min, read-out: CLH
# [7] = Half life in dog liver microsomes preincubated for 5 mins followed by NADPH addition and measured for 45 mins by LC-MS analysis; assay type: ADME, Canis lupus familiaris, Microsome; conditions: time 50 min
# [8] = system: Enterovirus; test: Antiviral activity against Enterovirus CV-B1 infected in RD cells assessed as inhibition of viral replication incubated for 24 hrs by CCK-8 assay; assay type: functional, organism-based
# [9] = Hepatic extraction ratio in human liver microsomes preincubated for 5 mins followed by NADPH addition and measured for 45 mins by LC-MS analysis; assay type: ADME, Microsome; conditions: time 50 min, read-out: ERH
# [10] = target: T1, von Hippel-Lindau disease tumor suppressor/Polymerase acidic protein (Influenza A virus (A/Puerto Rico/8/1934(H1N1))); test: PROTAC activity at Influenza A virus A/WSN/33(H1N1) flag tagged Polymerase acidic protein/VHL (unknown origin) expressed in HEK293T cells assessed as degradation of PA expression at 5 uM incubated for 24 hrs in presence of chloroquine by Western blotting analysis; assay type: cell-based
# [11] = Hepatic extraction ratio in mouse liver microsomes preincubated for 5 mins followed by NADPH addition and measured for 45 mins by LC-MS analysis; assay type: ADME, Microsome; conditions: time 50 min, read-out: ERH
# [12] = target: T2, von Hippel-Lindau disease tumor suppressor/Polymerase basic protein 2 (Influenza A virus (strain A/Puerto Rico/8/1934 H1N1)) (UniProt P40337+P03428); test: PROTAC activity at Influenza A virus A/WSN/33(H1N1) flag tagged Polymerase basic protein 2/VHL (unknown origin) expressed in HEK293T cells assessed as degradation of PB2 expression at 1 ug/ml incubated for 24 hrs by Western blotting analysis; assay type: cell-based; conditions: dose 1.0 µg/ml
# T2 sequence (P03428 whole entry, looked up): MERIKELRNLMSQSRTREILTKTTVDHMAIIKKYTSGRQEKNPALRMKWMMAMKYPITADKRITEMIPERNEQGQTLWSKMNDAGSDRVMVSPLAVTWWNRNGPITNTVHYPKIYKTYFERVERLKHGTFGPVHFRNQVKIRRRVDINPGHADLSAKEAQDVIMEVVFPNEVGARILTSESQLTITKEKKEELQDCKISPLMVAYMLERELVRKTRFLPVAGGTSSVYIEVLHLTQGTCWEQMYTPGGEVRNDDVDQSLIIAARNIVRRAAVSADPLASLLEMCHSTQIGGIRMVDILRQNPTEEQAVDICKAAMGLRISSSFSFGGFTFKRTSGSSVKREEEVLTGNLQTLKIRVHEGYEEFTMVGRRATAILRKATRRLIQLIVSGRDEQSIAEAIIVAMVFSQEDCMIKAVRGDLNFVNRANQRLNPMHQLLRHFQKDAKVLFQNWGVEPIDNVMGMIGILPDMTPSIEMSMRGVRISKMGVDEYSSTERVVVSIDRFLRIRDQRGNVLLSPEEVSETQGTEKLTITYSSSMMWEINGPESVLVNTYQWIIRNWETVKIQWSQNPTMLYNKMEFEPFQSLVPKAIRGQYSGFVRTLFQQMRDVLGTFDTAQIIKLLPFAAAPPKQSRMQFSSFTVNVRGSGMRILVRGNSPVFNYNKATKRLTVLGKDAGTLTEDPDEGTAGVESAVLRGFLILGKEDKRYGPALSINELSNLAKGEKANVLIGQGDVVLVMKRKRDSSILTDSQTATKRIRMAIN
# T2 sequence (P40337 whole entry, looked up): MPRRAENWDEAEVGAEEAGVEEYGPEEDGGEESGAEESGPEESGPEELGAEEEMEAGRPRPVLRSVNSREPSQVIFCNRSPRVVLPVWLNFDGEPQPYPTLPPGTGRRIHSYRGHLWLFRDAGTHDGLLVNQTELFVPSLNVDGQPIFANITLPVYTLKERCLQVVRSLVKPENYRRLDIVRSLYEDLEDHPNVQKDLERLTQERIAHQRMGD
# [13] = system: Influenza A virus; test: Anti-influenza activity against Influenza A virus H3N2 infected in HEK293T cells assessed as reduction in virus-induced cytopathic effect incubated for 48 hrs by CCK-8 assay; assay type: functional, organism-based; conditions: H3N2, HEK-293T
# [14] = Hepatic clearance in dog liver microsomes preincubated for 5 mins followed by NADPH addition and measured for 45 mins by LC-MS analysis; assay type: ADME, Canis lupus familiaris, Microsome; conditions: time 50 min
# [15] = system: Influenza A virus; test: Anti-influenza activity against Influenza A virus A/WSN/33(H1N1) infected in MDCK cells assessed as downregulation of nucleoprotein expression at 100 nM incubated for 24 hrs by Western blotting analysis relative to control; assay type: functional
# [16] = target: T1, von Hippel-Lindau disease tumor suppressor/Polymerase acidic protein (Influenza A virus (A/Puerto Rico/8/1934(H1N1))); test: PROTAC activity at Influenza A virus A/WSN/33(H1N1) flag tagged Polymerase acidic protein/VHL (unknown origin) expressed in HEK293T cells assessed as degradation of PA expression at 5 uM incubated for 24 hrs in presence of 3-methyladenine by Western blotting analysis; assay type: cell-based
# [17] = Stability in human plasma assessed as compound remaining measured after 30 mins by LC-MS/MS analysis; assay type: ADME, cell-free; conditions: read-out: Stability
# [18] = Stability in human plasma assessed as compound remaining measured after 5 mins by LC-MS/MS analysis; assay type: ADME, cell-free; conditions: read-out: Stability
# [19] = system: Influenza A virus; test: Anti-influenza activity against Influenza A virus A/PR/8/34 (H1N1) infected in MDCK cells assessed as inhibition of viral growth at 1 uM incubated for 48 hrs by luciferase assay relative to control; assay type: functional
# [20] = Hepatic clearance in human liver microsomes preincubated for 5 mins followed by NADPH addition and measured for 45 mins by LC-MS analysis; assay type: ADME, Microsome; conditions: time 50 min
# [21] = target: von Hippel-Lindau disease tumor suppressor/Polymerase basic protein 1 (Influenza A virus (strain A/Puerto Rico/8/1934 H1N1)) (UniProt P03431+P40337); test: PROTAC activity at Influenza A virus A/WSN/33(H1N1) flag tagged Polymerase basic protein 1/VHL (unknown origin) expressed in HEK293T cells assessed as degradation of PB1 expression at 10 ug/ml incubated for 24 hrs by Western blotting analysis; assay type: cell-based; conditions: dose 10.0 µg/ml
# von Hippel-Lindau disease tumor suppressor/Polymerase basic protein 1 (Influenza A virus (strain A/Puerto Rico/8/1934 H1N1)), sequence (P03431 whole entry, looked up): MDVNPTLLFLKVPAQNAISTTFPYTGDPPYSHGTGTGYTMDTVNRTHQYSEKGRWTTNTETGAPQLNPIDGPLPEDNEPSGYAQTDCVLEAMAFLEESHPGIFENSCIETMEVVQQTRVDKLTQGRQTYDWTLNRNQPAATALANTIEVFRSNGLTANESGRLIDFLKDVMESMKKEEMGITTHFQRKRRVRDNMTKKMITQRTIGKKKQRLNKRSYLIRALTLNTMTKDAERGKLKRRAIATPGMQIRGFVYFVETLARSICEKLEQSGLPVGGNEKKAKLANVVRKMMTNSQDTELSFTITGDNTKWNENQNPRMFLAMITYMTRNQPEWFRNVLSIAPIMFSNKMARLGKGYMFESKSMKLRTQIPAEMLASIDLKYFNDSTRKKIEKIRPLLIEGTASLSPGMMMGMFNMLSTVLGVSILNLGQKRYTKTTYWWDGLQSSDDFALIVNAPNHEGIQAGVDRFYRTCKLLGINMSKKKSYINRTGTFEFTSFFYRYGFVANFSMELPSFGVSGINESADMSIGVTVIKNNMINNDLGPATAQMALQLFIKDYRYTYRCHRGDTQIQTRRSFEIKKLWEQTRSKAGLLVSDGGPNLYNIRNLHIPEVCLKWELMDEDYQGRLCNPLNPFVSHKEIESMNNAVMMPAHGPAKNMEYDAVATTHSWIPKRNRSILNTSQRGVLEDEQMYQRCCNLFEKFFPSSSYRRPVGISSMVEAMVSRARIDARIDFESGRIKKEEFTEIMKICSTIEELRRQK
# von Hippel-Lindau disease tumor suppressor/Polymerase basic protein 1 (Influenza A virus (strain A/Puerto Rico/8/1934 H1N1)), sequence (P40337 whole entry, looked up): as the sequence (P40337 whole entry, looked up) above
# [22] = target: T1, von Hippel-Lindau disease tumor suppressor/Polymerase acidic protein (Influenza A virus (A/Puerto Rico/8/1934(H1N1))); test: PROTAC activity at Influenza A virus A/WSN/33(H1N1) flag tagged Polymerase acidic protein/VHL (unknown origin) expressed in HEK293T cells assessed as degradation of PA expression at 10 uM incubated for 8 hrs by Western blotting analysis; assay type: cell-based
# [23] = target: T2, von Hippel-Lindau disease tumor suppressor/Polymerase basic protein 2 (Influenza A virus (strain A/Puerto Rico/8/1934 H1N1)); test: PROTAC activity at Influenza A virus A/WSN/33(H1N1) flag tagged Polymerase basic protein 2/VHL (unknown origin) expressed in HEK293T cells assessed as degradation of PB2 expression at 0.1 to 10 uM incubated for 24 hrs by Western blotting analysis; assay type: cell-based; conditions: dose 0.1-10 µM
# [24] = system: Influenza A virus; test: Anti-influenza activity against Influenza A virus A/PR/8/34 (H1N1) infected in MDCK cells assessed as inhibition of viral growth at 0.8 nM incubated for 48 hrs by luciferase assay relative to control; assay type: functional
# [25] = system: Influenza B virus; test: Anti-influenza activity against Influenza B virus Yamagata/16/88 infected in HEK293T cells assessed as reduction in virus-induced cytopathic effect incubated for 48 hrs by CCK-8 assay; assay type: functional, organism-based; conditions: Yamagata/16/88, HEK-293T
# [26] = system: Enterovirus; test: Antiviral activity against Enterovirus CV-A16 infected in RD cells assessed as inhibition of viral replication incubated for 24 hrs by CCK-8 assay; assay type: functional, organism-based
# [27] = Cytotoxicity against dog MDCK cells assessed as reduction in cell viability incubated for 48 hrs by CCK-8 assay; assay type: toxicity, cell-based, Canis lupus familiaris
# [28] = target: T1, von Hippel-Lindau disease tumor suppressor/Polymerase acidic protein (Influenza A virus (A/Puerto Rico/8/1934(H1N1))); test: PROTAC activity at Influenza A virus A/WSN/33(H1N1) flag tagged Polymerase acidic protein/VHL (unknown origin) expressed in HEK293T cells assessed as degradation of PA expression at 10 uM incubated for 72 hrs by Western blotting analysis; assay type: cell-based
# [29] = Stability in human plasma assessed as compound remaining measured after 15 mins by LC-MS/MS analysis; assay type: ADME, cell-free; conditions: read-out: Stability
# [30] = target: T1, von Hippel-Lindau disease tumor suppressor/Polymerase acidic protein (Influenza A virus (A/Puerto Rico/8/1934(H1N1))); test: PROTAC activity at Influenza A virus A/WSN/33(H1N1) flag tagged Polymerase acidic protein/VHL (unknown origin) expressed in HEK293T cells assessed as degradation of PA expression at 10 uM by Western blotting analysis; assay type: cell-based; conditions: TDE = time-dependent effect
# [31] = target: T2, von Hippel-Lindau disease tumor suppressor/Polymerase basic protein 2 (Influenza A virus (strain A/Puerto Rico/8/1934 H1N1)); test: PROTAC activity at Influenza A virus A/WSN/33(H1N1) flag tagged Polymerase basic protein 2/VHL (unknown origin) expressed in HEK293T cells assessed as degradation of PB2 expression at 10 ug/ml incubated for 24 hrs by Western blotting analysis; assay type: cell-based; conditions: dose 10.0 µg/ml
smiles,measurement,setting,value
CC(C)(C)OC(=O)NCCCC[C@H](NC(=O)OC(C)(C)C)C(=O)NCCCCCCCC(=O)Nc1ccc(NC(=S)NC(=O)c2ccc(C(C)(C)C)cc2)cc1,Activity,[1],Active
same,Activity,[2],Dose-Dependent Effect
same,Activity,[3],Active
same,half-life,[4],32.1 min
same,remaining at 1 h,[5],96.9%
same,CLint scaled,[6],137 mL/min/kg
same,half-life,[7],19.6 min
same,Activity,[8],Active
same,hepatic extraction ratio at 0.75 h,[9],0.588
same,Activity,[10],inactive
same,hepatic extraction ratio at 0.75 h,[11],0.654
same,Activity,[12],inactive
same,EC50,[13],36 nM
same,CLhep predicted,[14],26.3 mL/min/kg
same,Activity,[15],35%
same,Activity,[16],inactive
same,remaining at 0.5 h,[17],108%
same,remaining at 5 min,[18],96.8%
same,inhibition at 1 µM,[19],96%
same,CLhep predicted,[20],18 mL/min/kg
same,Activity,[21],inactive
same,Activity,[22],Active
same,Activity,[23],inactive
same,inhibition at 0.0008 µM,[24],82%
same,EC50,[25],73 nM
same,Activity,[26],Active
same,CC50 at 48 h,[27],> 200000 nM
same,Activity,[28],Active
same,remaining at 0.25 h,[29],109%
same,Activity,[30],Tde
same,Activity,[31],inactive
